# Laboratory results as given in US20220380341A1, “INHIBITORS OF HIV-1 NEF FOR THE TREATMENT OF HIV DISEASE” (priority 2018, published 2022).
# Read-outs that look alike come from different tables or passages of the source.
# Key:
# [1] = biological target: HIV-1 NefNL4-3 (Human immunodeficiency virus type 1 group M subtype B, UniProt P03406, A33V/T15A/T51N/V11I); experiment: Surface plasmon resonance binding to recombinant full-length Nef (NL4-3); settings: for Nef NL4-3 Binding, SPR 1:1 or 2-site fitting KD1: 1:1 Langmuir fit where the KD2 cell says '1 to 1 fitting', else 2-site fit
# [2] = tested on: HIV-1NL4-3; experiment: HIV-1 infectivity assay in TZM-bl reporter cell line (LTR-luciferase, 48 h); format: cell-based; settings: Human immunodeficiency virus 1, TZM-bl, 48 h, Table 1; TZM-bl cells, 1 μM, 48 h; 100% = Nef-defective HIV-1; read-out: HIV-1 Infectivity % Inhibition Norm. to Δ-Nef @ 1 μM
# Experimental: (§1) In particular, the tables show antiretroviral activity as percent inhibition of HIV-1 infectivity at 1 μM. In brief, this assay uses the TZM-bl reporter cell line, which carries a stable copy of the HIV-1 LTR coupled to luciferase. Cells are infected with HIV-1NL4-3 in the presence and absence of each compound, and luciferase activity is measured 48 h later. This assay measures early events in the HIV-1 life cycle, including viral entry, reverse transcription, nuclear entry and integration, and viral transcription. All assays include control cells infected with Nef-defective HIV-1, which replicates at 30-50% of wild-type in this system. Results are normalized to percent inhibition relative to DMSO-treated control cells infected with wild-type HIV-1 (0% inhibition) and DMSO-treated cells infected with Nef-defective HIV-1 (100% of the Nef-dependent effect)—see column 3. In addition, cell viability is measured in the TZM-bl cell line in the presence of each test compound and in the absence of HIV-1 infection, using the Cell Titer Blue cell viability assay (Promega; column 4).
# [3] = tested on: TZM-bl cell line; format: cell-based; settings: for % Cell Viability: 1.0 μM, uninfected TZM-bl, CellTiter-Blue, Table 4
# Experimental: as §1
# [4] = Nef NL4-3 Binding, SPR 1:1 or 2-site fitting KD2, Table 1, 2-site fit, second component
# [5] = read-out: Nef NL4-3 Binding, SPR 1:1 or 2-site fitting KD2, Table 1, 2-site fit, second component
# [6] = Table 1, 2-step induced-fit model, read-out: Nef NL4-3 Binding, SPR 2-state fitting KD
# [7] = read-out: Nef NL4-3 Binding, SPR 1:1 or 2-site fitting KD1
# [8] = Table 2, uninfected TZM-bl cells, 1 μM, Cell Titer Blue
smiles,measurement,setting,value
"Oc1c(CCc2ccc(F)cc2)c(-c2cnccn2)nn1-c1nc2ccccc2[nH]1 [Compound I-103, 1-(1H-1,3-benzodiazol-2-yl)-4-[2-(4-fluorophenyl)ethyl]-3-(pyrazin-2-yl)-1H-pyrazol-5-ol]",Kd,[1]; [4],25400 nM
"Cc1ccc(-c2nn(-c3nc4ccccc4[nH]3)c(O)c2CCc2ccc(F)cc2)cc1 [Compound I-104, 1-(1H-1,3-benzodiazol-2-yl)-4-[2-(4-fluorophenyl)ethyl]-3-(4-methylphenyl)-1H-pyrazol-5-ol]",Kd,[1],2370 nM
same,Kd,[1]; [4],2260 nM
"Oc1c(CCc2ccc(F)cc2)c(-c2ccccn2)nn1-c1nc2ccccc2[nH]1 [Compound I-109, 1-(1H-1,3-benzodiazol-2-yl)-4-[2-(4-fluorophenyl)ethyl]-3-(pyridin-2-yl)-1H-pyrazol-5-ol]",Kd,[1],36.2 nM
"Oc1c(CCc2ccc(F)c(F)c2)c(-c2cnccn2)nn1-c1nc2ccccc2[nH]1 [Compound I-111, 1-(1H-1,3-benzodiazol-2-yl)-4-[2-(3,4-difluorophenyl)ethyl]-3-(pyrazin-2-yl)-1H-pyrazol-5-ol]","Nef NL4-3 Binding, SPR 1:1 or 2-site fitting KD1",[1]; Table 1,No Interaction
"Oc1c(CCc2ccc(F)c(Cl)c2)c(-c2cnccn2)nn1-c1nc2ccccc2[nH]1 [Compound I-112, 1-(1H-1,3-benzodiazol-2-yl)-4-[2-(3-chloro-4-fluorophenyl)ethyl]-3-(pyrazin-2-yl)-1H-pyrazol-5-ol]","Nef NL4-3 Binding, SPR 1:1 or 2-site fitting KD1",[1]; Table 1,No Interaction
"Oc1c(CCc2ccc(F)cc2)c(-c2ccncc2)nn1-c1nc2ccccc2[nH]1 [Compound I-113, 1-(1H-1,3-benzodiazol-2-yl)-4-[2-(4-fluorophenyl)ethyl]-3-(pyridin-4-yl)-1H-pyrazol-5-ol]",Kd,[1],3350 nM
"C=CCc1c(-c2ccc(C(F)(F)F)cc2)nn(-c2nc3ccccc3[nH]2)c1O [Compound I-115, 1-(1H-1,3-benzodiazol-2-yl)-4-(prop-2-en-1-yl)-3-[4-(trifluoromethyl)phenyl]-1H-pyrazol-5-ol]",Kd,[1],687 nM
same,Kd,[1]; [5],5700 nM
"Oc1c(CCc2ccc(F)cc2)c(-c2cccc(Cl)c2)nn1-c1nc2ccccc2[nH]1 [Compound I-116, 1-(1H-1,3-benzodiazol-2-yl)-3-(3-chlorophenyl)-4-[2-(4-fluorophenyl)ethyl]-1H-pyrazol-5-ol]",Kd,[1],2010 nM
"Oc1c(CCc2ccc(F)cc2)c(-c2ccccc2Cl)nn1-c1nc2ccccc2[nH]1 [Compound I-117, 1-(1H-1,3-benzodiazol-2-yl)-3-(2-chlorophenyl)-4-[2-(4-fluorophenyl)ethyl]-1H-pyrazol-5-ol]",Kd,[1],1710 nM
same,Kd,[1]; [5],24700 nM
"Oc1c(CCc2ccc(F)cc2)c(CCCc2ccc(F)cc2)nn1-c1nc2ccccc2[nH]1 [Compound I-120, 1-(1H-1,3-benzodiazol-2-yl)-4-[2-(4-fluorophenyl)ethyl]-3-[3-(4-fluorophenyl)propyl]-1H-pyrazol-5-ol]",inhibition at 1 µM,[2],70.1%
same,Percent Viability @ 1 μM (TZM-bl cells),"[3]; human, 1 μM",89.1%
"O=C(OCc1ccccc1)N1CCC(c2nn(-c3nc4ccccc4[nH]3)c(O)c2Cc2ccc(F)c(F)c2)CC1 [Compound I-159, benzyl 4-[1-(1H-1,3-benzodiazol-2-yl)-4-[(3,4-difluorophenyl)methyl]-5-hydroxy-1H-pyrazol-3-yl]piperidine-1-carboxylate]",Kd,[1],384 nM
"CC(C)(C)OC(=O)N1CCC(c2nn(-c3nc4ccccc4[nH]3)c(O)c2Cc2ccc(F)c(F)c2)CC1 [Compound I-203, tert-butyl 4-[1-(1H-1,3-benzodiazol-2-yl)-4-[(3,4-difluorophenyl)methyl]-5-hydroxy-1H-pyrazol-3-yl]piperidine-1-carboxylate]",Kd,[1],821 nM
same,Kd,[1]; [5],45400 nM
"Oc1c(CCc2ccc(F)cc2)c(C2CCCNC2)nn1-c1nc2ccccc2[nH]1 (stereo not shown) [Compound I-502, 1-(1H-1,3-benzodiazol-2-yl)-4-[2-(4-fluorophenyl)ethyl]-3-(piperidin-3-yl)-1H-pyrazol-5-ol]",Kd,[1]; [6],4510 nM
same,Kd,[1]; [7],2450 nM
"Oc1c(CCc2ccc(F)cc2)c(C2CCNCC2)nn1-c1nc2ccccc2[nH]1 [Compound I-551, 1-(1H-1,3-benzodiazol-2-yl)-4-[2-(4-fluorophenyl)ethyl]-3-(piperidin-4-yl)-1H-pyrazol-5-ol]","Nef NL4-3 Binding, SPR 1:1 or 2-site fitting KD1",[1]; Table 1,No Interaction
CC(C)(C)OC(=O)N1CCC(CCc2c(-c3cccc(S(C)(=O)=O)c3)nn(-c3cc(C(F)(F)F)n[nH]3)c2O)CC1 [Compound I-605],% Cell Viability,[3],100%
same,Percent Viability @ 1 μM (TZM-bl cells),[3]; [8],106.0%
CS(=O)(=O)c1ccc(-c2nn(-c3cc(C4CC4)n[nH]3)c(O)c2CCC2CCOCC2)cc1 [Compound I-607],Percent Viability @ 1 μM (TZM-bl cells),[3],100.0%
CCOC(=O)c1ccc(CCc2c(-c3ccccc3)nn(-c3cc(C(F)(F)F)n[nH]3)c2O)cc1 [Compound I-612],% Cell Viability,[3],100%
same,Percent Viability @ 1 μM (TZM-bl cells),[3]; [8],100.7%
Oc1c(CCc2ccncc2)c(-c2ccc(F)cc2)nn1-c1cc(C(F)(F)F)n[nH]1 [Compound I-620],Percent Viability @ 1 μM (TZM-bl cells),[3],100.0%
"CC(=O)N1CCC(c2nn(-c3nc4ccccc4[nH]3)c(O)c2CCc2ccc(F)cc2)CC1 [Compound I-741, 1-{4-[1-(1H-1,3-benzodiazol-2-yl)-4-[2-(4-fluorophenyl)ethyl]-5-hydroxy-1H-pyrazol-3-yl]piperidin-1-yl}ethan-1-one]",Kd,[1],3260 nM
same,Kd,[1]; [5],10600 nM
"CS(=O)(=O)N1CCC(c2nn(-c3nc4ccccc4[nH]3)c(O)c2CCc2ccc(F)cc2)CC1 [Compound I-743, 1-(1H-1,3-benzodiazol-2-yl)-4-[2-(4-fluorophenyl)ethyl]-3-(1-methanesulfonylpiperidin-4-yl)-1H-pyrazol-5-ol]","Nef NL4-3 Binding, SPR 1:1 or 2-site fitting KD1",[1]; Table 1,No Interaction
"CC(C)(C)OC(=O)N1CCCC(c2nn(-c3nc4ccccc4[nH]3)c(O)c2CCc2ccc(F)cc2)C1 (stereo not shown) [Compound I-755, tert-butyl 3-[1-(1H-1,3-benzodiazol-2-yl)-4-[2-(4-fluorophenyl)ethyl]-5-hydroxy-1H-pyrazol-3-yl]piperidine-1-carboxylate]",Kd,[1]; [6],296 nM
same,Kd,[1]; [7],52.7 nM
"CN1CCC(c2nn(-c3nc4ccccc4[nH]3)c(O)c2CCc2ccc(F)cc2)CC1 [Compound I-801, 1-(1H-1,3-benzodiazol-2-yl)-4-[2-(4-fluorophenyl)ethyl]-3-(1-methylpiperidin-4-yl)-1H-pyrazol-5-ol]","Nef NL4-3 Binding, SPR 1:1 or 2-site fitting KD1",[1]; Table 1,No Interaction
"Oc1c(CCc2ccc(F)cc2)c(C2CCN(c3ncccn3)CC2)nn1-c1nc2ccccc2[nH]1 [Compound I-903, 1-(1H-1,3-benzodiazol-2-yl)-4-[2-(4-fluorophenyl)ethyl]-3-[1-(pyrimidin-2-yl)piperidin-4-yl]-1H-pyrazol-5-ol]",Kd,[1]; [7],9980 nM
"Oc1c(Cc2ccc(F)c(F)c2)c(C2CCN(CC(F)(F)F)CC2)nn1-c1nc2ccccc2[nH]1 [Compound I-1001, 1-(1H-1,3-benzodiazol-2-yl)-4-[(3,4-difluorophenyl)methyl]-3-[1-(2,2,2-trifluoroethyl)piperidin-4-yl]-1H-pyrazol-5-ol]",Kd,"[1]; Table 1, 2-site fit, second component, read-out: Nef NL4-3 Binding, SPR 1:1 or 2-site fitting KD2",500 nM
same,Kd,[1]; [7],257 nM
Fc1ccc(-c2c(CCc3ccccc3)cnn2-c2cc(C(F)(F)F)n[nH]2)cc1 [Compound I-1501],% Cell Viability,[3],97.9%
Fc1ccc(-c2nn(-c3cc(C(F)(F)F)n[nH]3)cc2CCc2ccccc2)cc1 [Compound I-1501],Percent Viability @ 1 μM (TZM-bl cells),[3]; [8],102.5%
